Tests used:
[1] = Brain permeability of rats (Kp-unbound); type: in vivo; conditions: both sexes, rat, not told, po; SD rats, 10 mg/kg intragastrically, 0.5 h after administration; read-out: Kp-unbound (blood-brain permeability index)
Protocol: The activity of the compounds of the present invention on the brain permeability of rats was determined by the following experimental method:
Four SD rats (half male and half female) were maintained in a 12 hours light/12 hours dark cycle, in a constant temperature of 24±3° C. and a humidity of 50-60%, and free access to food and water. The compounds were administered intragastrically to the rats after fasting overnight. The administration dosage was 10 mg/kg. The administration group was sacrificed after blood collection at 0.5 h to 2 h after administration (blood volume: 0.5 ml). The blood sample was stored in heparinized tubes, and centrifuged for 10 minutes at 3500 rpm to separate the plasma, which was marked as plasma 1 and stored at […]. The animal was decapitated after sacrificing, and the brain tissue was collected. The residual blood in the brain tissue was sucked with a filter paper, which was marked as brain tissue 1, and stored at 0° C. ten minutes later. Another three animals were treated by the same method as that of administration group to obtain blank plasma and brain tissue 2.
The drug compounds were diluted to 50 mM with DMSO to obtain a stock solution I. An appropriate amount of stock solution I was diluted with methanol to obtain a diluted stock solution II (200 μM). 10 μl of stock solution II was moved to a 1.5 ml Eppendorf tube, and then added with 990 μl of blank plasma, and mixed well to obtain 2 μM of plasma sample 2 (concentration of DMSO≤0.2%), which was used for the determination of plasma protein binding rate at this concentration. […]
The equilibrium dialysis tube of RED Device Inserts was inserted into a 96-well plate. […] The chromatographic peak area ratios of the total drug (plasma chamber) and the free drug (buffer chamber) to the internal standard were determined directly by the LC/MS/MS method established above respectively, and the free percent (fu plasma %) was calculated.
Brain tissue protein binding equilibrium dialysis process: the blank brain tissue 2 was formulated into a blank brain homogenate with PBS (pH 7.4) according to a dilution factor of 11, and added with compound to formulate a 2 μM brain homogenate. Other procedures were the same with that of plasma protein binding, the chromatographic peak area ratios of the total drug (brain homo chamber) and the free drug (buffer chamber) to the internal standard were determined by the established LC/MS/MS method respectively, and the free percent (fu brain hom %) was calculated.
1) The drug concentrations in plasma 1 and brain tissue 1 of rats 0.5 h after administration were determined by the established LC/MS/MS method respectively, which were the total concentration (Ctotal, p and Ctotal, b); […]

human V2R = human V2R (Homo sapiens (Human), UniProt P30518); assay: Inhibition activity on human V2R (cAMP HTRF assay, HEK293/human V2R pool cells); type: cell-based; conditions: vasopressin
Protocol: The inhibition effect of the compounds of the present invention on the activity of human V2R protein expressed in HEK293/human V2R cells was determined by the following experimental method:
The pcDNA3.1-V2R plasmid was transferred into HEK293 cells with the Lipofectamine® 3000 transfection reagent; G418 was added on the next day, and the HEK293/human V2R pool cell lines were obtained.
HEK293/human V2R pool cells were dissociated with the cell dissociation solution (enzyme-free), thereby dissociating the cells from the cell culture dish into individual cells. Then the cell solution was blown well, and centrifuged to remove the supernatant. The cells were resuspended in the test buffer 1 (1×HBSS+20 mM HEPES+0.1% BSA) and counted. The cell density was adjusted to 1250 cells/5 μl, i.e., 2.5*10^5/ml.
The compounds were formulated into a series of concentrations of 20 mM, 6.67 mM, 2.22 mM, 0.74 mM, 0.25 mM, 0.08 mM, 27.4 μM, 9.14 μM, 3.05 μM, 1.02 μM, 0.34 μM and 0 μM (DMSO) with pure DMSO. The compounds were then diluted into a 4-fold working concentration solution with the test buffer 2 (test buffer 1+1 mM IBMX).
Agonist: 460 μM vasopressin was used as the mother liquor, which was formulated at 2 μM with DMSO, and then diluted to 0.5 nM with the test buffer 2.
Standards: The first point was 20 μl of a stock solution (2848 nM), which was diluted successively to a total of eleven concentrations in a 4-fold concentration gradient with the test buffer 1 from the second point.
1. The well-mixed cells were added to a 384-well plate (5 μl/well) without changing the tip.
2. The test compounds and positive compound formulated were added (2.5 μl/well), and the tips were changed.
3. The plate was centrifuged at 1000 rpm for 1 min, shaken for 30 sec to mix well, and incubated at room temperature for 30 min.
4. The standard curve wells were added with the test buffer 2 (5 μl/well).
5. The formulated agonist was added (2.5 μl/well), and the tips were changed; the plate was centrifuged at 1000 rpm for 1 min, shaken for 30 sec to mix well, and incubated at room temperature for 30 min.
6. cAMP-d2 (a component in the cAMP dynamic 2 kit) and Anti-cAMP-Eu-Cryptate (a component in the cAMP dynamic 2 kit) were formulated in the dark, which were then mixed well with cAMP lysate (a component in the cAMP dynamic 2 kit) in a ratio of 1:4. Each well was added with the formulated cAMP-d2 solution (5 μl/well), followed by addition of Anti-cAMP-Eu-Cryptate (5 μl/well). The plate was shaken for 30 sec to mix well, and incubated in the dark at room temperature for 1 h.
The HTRF Signals were Read by the PheraStar Multi-Function Microplate Reader.
The data in this test was processed using the data processing software Graphpad Prism.
The inhibition activity of the compounds of the present invention on human V2R was determined by the above test, and the IC50 values obtained are shown in Table 4.

Sequence of human V2R (P30518 whole entry): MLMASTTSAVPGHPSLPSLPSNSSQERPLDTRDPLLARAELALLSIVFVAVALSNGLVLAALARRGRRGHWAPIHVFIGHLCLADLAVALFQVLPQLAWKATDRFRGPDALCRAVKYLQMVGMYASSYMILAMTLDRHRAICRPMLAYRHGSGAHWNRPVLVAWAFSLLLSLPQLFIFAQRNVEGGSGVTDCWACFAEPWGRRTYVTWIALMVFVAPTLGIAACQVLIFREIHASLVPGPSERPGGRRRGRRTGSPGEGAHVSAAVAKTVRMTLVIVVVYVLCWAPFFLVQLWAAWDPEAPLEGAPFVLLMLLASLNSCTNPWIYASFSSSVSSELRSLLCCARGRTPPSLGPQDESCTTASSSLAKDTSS

Kp at 0.5 h [1] | IC50 (human V2R) [µM] | SMILES
0.199 | 4.9 | COCc1nnc(N2CC(c3cccc4cc(F)ccc34)C2)n1-c1ccc(OC)nc1 [Example 2, 5-(3-(3-(6-Fluoronaphthalen-1-yl)azetidin-1-yl)-5-(methoxymethyl)-4H-1,2,4-triazol-4-yl)-2-methoxypyridine]
0.295 | 10.9 | COCc1nnc(N2CC(n3cc(C)c4cc(F)ccc43)C2)n1-c1ccc(OC)nc1 [Example 17, 5-Fluoro-1-(1-(5-(methoxymethyl)-4-(6-methoxypyridin-3-yl)-4H-1,2,4-triazol-3-yl)azetidin-3-yl)-3-methyl-1H-indole]

— patent US10889569B2, “Condensed ring group azacyclobutyl triazole derivative, preparation method therefor and use thereof in medicine” (Jiangsu Hengrui Medicine Co., Ltd., priority 2016, dated 2021)
